{"source": "patent US9029337B2", "about": "“Modulation of factor 7 expression” (Isis Pharmaceuticals, Inc., priority 2007, dated 2015)", "key": {"[1]": {"test_system": "intrinsic pathway of blood coagulation", "experiment": "Activated Partial Thromboplastin Time (aPTT) in platelet poor plasma of treated BALB/c mice", "type": "in vivo, mouse", "experimental": "(§1) Prothrombin Time (PT) and Activated Partial Thromboplastin Time (aPTT) were measured using platelet poor plasma (PPP) from mice treated with ISIS 403102. PT and aPTT values provided in Table 20 are reported as International Normalized Ratio (INR) values. INR values for PT and aPTT were determined by dividing the PT or aPTT value for the experimental group by the PT or aPTT for the PBS treated group. This ratio was then raised to the power of the International Sensitivity Index (ISI) of the tissue factor used.\nas §1, with “in Table 22 are reported” for “in Table 20 are reported”, “experimental group (i.e. 50 mg/kg treatment with ISIS 403102) by the” for “experimental group by the”\nas §1, with “in Table 24 are reported” for “in Table 20 are reported”, “experimental group (i.e. 50 mg/kg treatment with ISIS 403102) by the” for “experimental group by the”"}, "[2]": {"test_system": "human Factor 7 mRNA", "experiment": "Dose-dependent antisense inhibition of human Factor 7 in HepB3 cells, electroporation", "type": "cell-based", "outline": "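HepB3 cells, 20,000/well, electroporated with gapmers at 3.125–100 μM; about 16 h treatment. Factor 7 mRNA by qRT-PCR with primer probe set RTS 2927, normalized to RIBOGREEN total RNA; percent inhibition versus untreated cells.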"}, "[3]": {"details": "3.125 μM, approx. 16 hours (Table 15, Example 7)"}, "[4]": {"details": "3.125 μM, approx. 16 hours (Table 16, Example 8 confirmation)"}, "[5]": {"details": "6.25 μM, approx. 16 hours (Table 15, Example 7)"}, "[6]": {"details": "6.25 μM, approx. 16 hours (Table 16, Example 8 confirmation)"}, "[7]": {"details": "12.5 μM, approx. 16 hours (Table 15, Example 7)"}, "[8]": {"details": "12.5 μM, approx. 16 hours (Table 16, Example 8 confirmation)"}, "[9]": {"details": "25 μM, approx. 16 hours (Table 15, Example 7)"}, "[10]": {"details": "25 μM, approx. 16 hours (Table 16, Example 8 confirmation)"}, "[11]": {"details": "50 μM, approx. 16 hours (Table 15, Example 7)"}, "[12]": {"details": "50 μM, approx. 16 hours (Table 16, Example 8 confirmation)"}, "[13]": {"details": "100 μM, approx. 16 hours (Table 15, Example 7)"}, "[14]": {"details": "100 μM, approx. 16 hours (Table 16, Example 8 confirmation)"}}, "note": "Strand notation (5' to 3'): a small letter for the sugar, then the base; units joined by * are phosphorothioate-linked, units joined directly phosphodiester-linked; [ ] holds rarer units or linkages, { } end groups; capitals alone tell only the bases. e = 2'-O-(2-methoxyethyl) (MOE); [5mC] = 5-methylcytosine; d = 2'-deoxy (DNA)"}
{"substance": "CCATAGAACAGCTTCACAGG (sugars from the 5' end e5 d10 e5, backbone and methylation of C not given here) [ISIS 403102]", "values": [{"measurement": "aPTT INR", "setting": "[1]; BALB/c mice, 5 mg/kg, relative to PBS treated group", "value": 1.05}, {"measurement": "aPTT INR", "setting": "[1]; BALB/c mice, 10 mg/kg, relative to PBS treated group", "value": 1.04}, {"measurement": "aPTT INR", "setting": "[1]; BALB/c mice, 25 mg/kg, relative to PBS treated group", "value": 1.09}, {"measurement": "aPTT INR", "setting": "[1]; BALB/c mice, 50 mg/kg, 1 dose, 1 day after last dose, relative to PBS group", "value": 1.08, "unit": "INR"}, {"measurement": "aPTT INR", "setting": "[1]; BALB/c mice, 50 mg/kg, 1 dose, 3 days after last dose, relative to PBS group", "value": 1.10, "unit": "INR"}, {"measurement": "aPTT INR", "setting": "[1]; BALB/c mice, 50 mg/kg, 2 doses, 3 days after last dose, relative to PBS group", "value": 1.29, "unit": "INR"}, {"measurement": "aPTT INR", "setting": "[1]; BALB/c mice, 50 mg/kg, 4 doses, 3 days after last dose, relative to PBS group", "value": 1.53, "unit": "INR"}, {"measurement": "aPTT INR", "setting": "[1]; BALB/c mice, 50 mg/kg, 6 doses, 2 days after last dose, relative to PBS group", "value": 1.62, "unit": "INR"}, {"measurement": "aPTT INR", "setting": "[1]; BALB/c mice, 50 mg/kg, 6 doses, 7 days after last dose, relative to PBS group", "value": 1.67, "unit": "INR"}, {"measurement": "aPTT INR", "setting": "[1]; BALB/c mice, 50 mg/kg, 6 doses, 14 days after last dose, relative to PBS group", "value": 1.25, "unit": "INR"}, {"measurement": "aPTT INR", "setting": "[1]; BALB/c mice, 50 mg/kg, 6 doses, 28 days after last dose, relative to PBS group", "value": 0.90, "unit": "INR"}, {"measurement": "aPTT INR", "setting": "[1]; BALB/c mice, 50 mg/kg, 6 doses, 42 days after last dose, relative to PBS group", "value": 1.00, "unit": "INR"}, {"measurement": "aPTT INR", "setting": "[1]; BALB/c mice, 50 mg/kg, 6 doses, 56 days after last dose, relative to PBS group", "value": 0.98, "unit": "INR"}, {"measurement": "aPTT INR", "setting": "[1]; BALB/c mice, 50 mg/kg, relative to PBS treated group", "value": 1.16}, {"measurement": "aPTT INR", "setting": "[1]; BALB/c mice, single dose 50 mg/kg, day 1", "value": 1.00}, {"measurement": "aPTT INR", "setting": "[1]; BALB/c mice, single dose 50 mg/kg, day 2", "value": 1.05}, {"measurement": "aPTT INR", "setting": "[1]; BALB/c mice, single dose 50 mg/kg, day 3", "value": 1.24}, {"measurement": "aPTT INR", "setting": "[1]; BALB/c mice, single dose 50 mg/kg, day 4", "value": 1.15}, {"measurement": "aPTT INR", "setting": "[1]; BALB/c mice, single dose 50 mg/kg, day 6", "value": 1.23}, {"measurement": "aPTT INR", "setting": "[1]; BALB/c mice, single dose 50 mg/kg, day 8", "value": 1.18}, {"measurement": "aPTT INR", "setting": "[1]; BALB/c mice, single dose 50 mg/kg, day 12", "value": 1.18}, {"measurement": "aPTT INR", "setting": "[1]; BALB/c mice, single dose 50 mg/kg, day 24", "value": 1.02}, {"measurement": "aPTT INR", "setting": "[1]; BALB/c mice, single dose 50 mg/kg, day 56", "value": 0.97}, {"measurement": "aPTT compared to the control", "setting": "[1]; Example 11, 5-50 mg/kg twice a week for 3 weeks", "value": "slightly prolonged"}, {"measurement": "aPTT", "setting": "[1]; Example 13, 6 doses, from day 7 to day 56", "value": "decreased"}, {"measurement": "aPTT INR", "setting": "[1]; single dose 50 mg/kg, day 4", "value": 1.24}, {"measurement": "aPTT INR", "setting": "[1]; single dose 50 mg/kg, day 56", "value": 0.97}, {"measurement": "aPTT INR", "setting": "[1]; single dose 50 mg/kg, starting value before the rise to day 4", "value": 1.00}]}
{"substance": "407939 (antisense eT*eG*e[5mC]*eA*eG*d[5mC]*d[5mC]*d[5mC]*dG*dG*d[5mC]*dA*d[5mC]*d[5mC]*d[5mC]*eA*eG*e[5mC]*eG*eA) [compound 407939]", "values": [{"measurement": "percent inhibition of Factor 7 mRNA, relative to untreated control cells", "setting": "[2]; [3]", "value": 18, "unit": "%"}, {"measurement": "percent inhibition of Factor 7 mRNA, relative to untreated control cells", "setting": "[2]; [4]", "value": 35, "unit": "%"}, {"measurement": "percent inhibition of Factor 7 mRNA, relative to untreated control cells", "setting": "[2]; [5]", "value": 28, "unit": "%"}, {"measurement": "percent inhibition of Factor 7 mRNA, relative to untreated control cells", "setting": "[2]; [6]", "value": 60, "unit": "%"}, {"measurement": "percent inhibition of Factor 7 mRNA, relative to untreated control cells", "setting": "[2]; [7]", "value": 42, "unit": "%"}, {"measurement": "percent inhibition of Factor 7 mRNA, relative to untreated control cells", "setting": "[2]; [8]", "value": 60, "unit": "%"}, {"measurement": "percent inhibition of Factor 7 mRNA, relative to untreated control cells", "setting": "[2]; [9]", "value": 56, "unit": "%"}, {"measurement": "percent inhibition of Factor 7 mRNA, relative to untreated control cells", "setting": "[2]; [10]", "value": 73, "unit": "%"}, {"measurement": "percent inhibition of Factor 7 mRNA, relative to untreated control cells", "setting": "[2]; [11]", "value": 68, "unit": "%"}, {"measurement": "percent inhibition of Factor 7 mRNA, relative to untreated control cells", "setting": "[2]; [12]", "value": 81, "unit": "%"}, {"measurement": "percent inhibition of Factor 7 mRNA, relative to untreated control cells", "setting": "[2]; [13]", "value": 82, "unit": "%"}, {"measurement": "percent inhibition of Factor 7 mRNA, relative to untreated control cells", "setting": "[2]; [14]", "value": 83, "unit": "%"}]}
{"substance": "407935 (antisense eA*eT*eG*e[5mC]*eA*dT*dG*dG*dT*dG*dA*dT*dG*d[5mC]*dT*eT*e[5mC]*eT*eG*eA) [compound 407935]", "values": [{"measurement": "percent inhibition of Factor 7 mRNA, relative to untreated control cells", "setting": "[2]; [3]", "value": 37, "unit": "%"}, {"measurement": "percent inhibition of Factor 7 mRNA, relative to untreated control cells", "setting": "[2]; [4]", "value": 63, "unit": "%"}, {"measurement": "percent inhibition of Factor 7 mRNA, relative to untreated control cells", "setting": "[2]; [5]", "value": 47, "unit": "%"}, {"measurement": "percent inhibition of Factor 7 mRNA, relative to untreated control cells", "setting": "[2]; [6]", "value": 79, "unit": "%"}, {"measurement": "percent inhibition of Factor 7 mRNA, relative to untreated control cells", "setting": "[2]; [7]", "value": 67, "unit": "%"}, {"measurement": "percent inhibition of Factor 7 mRNA, relative to untreated control cells", "setting": "[2]; [8]", "value": 84, "unit": "%"}, {"measurement": "percent inhibition of Factor 7 mRNA, relative to untreated control cells", "setting": "[2]; [9]", "value": 73, "unit": "%"}, {"measurement": "percent inhibition of Factor 7 mRNA, relative to untreated control cells", "setting": "[2]; [10]", "value": 90, "unit": "%"}, {"measurement": "percent inhibition of Factor 7 mRNA, relative to untreated control cells", "setting": "[2]; [11]", "value": 80, "unit": "%"}, {"measurement": "percent inhibition of Factor 7 mRNA, relative to untreated control cells", "setting": "[2]; [12]", "value": 90, "unit": "%"}, {"measurement": "percent inhibition of Factor 7 mRNA, relative to untreated control cells", "setting": "[2]; [13]", "value": 87, "unit": "%"}, {"measurement": "percent inhibition of Factor 7 mRNA, relative to untreated control cells", "setting": "[2]; [14]", "value": 91, "unit": "%"}]}
